Laboratory results published in the NIST ThermoML archive (doi:10.1016/j.jct.2008.02.016).
Numbers after ± are expanded uncertainties.

Conditions: Liquid

SMILES | vapor or sublimation pressure (303.15 K) | vapor or sublimation pressure (313.15 K) | vapor or sublimation pressure (323.15 K)
CCCCCCC [heptane] | 7.87 ± 0.16 kPa | 12.33 ± 0.22 kPa | 18.95 ± 0.3 kPa
CCCCCC [hexane] | 25.01 ± 0.37 kPa | 37.54 ± 0.53 kPa | 54.39 ± 0.74 kPa
